Measurements published in patent US10780067B2, “Endoxifen for local transdermal therapy to the breast” (Northwestern University, priority 2016, dated 2020).
Several values for one entry are separate records, joined by “and”; a condition that tells them apart may be missing. Equal entries are not always repeated.

Legend:
Format in all cases: in vivo, human
[1] = Plasma, breast adipose tissue and NAF concentrations of tamoxifen and its metabolites (LC-MS/MS), presurgical trial
Description: (§1) All participants provided informed consent. Baseline assessments included a history and physical, explanation of gel application, completion of the Breast Cancer Prevention Trial Eight Symptom Scale (BESS) questionnaire, collection of a venous blood sample, and collection of nipple aspirate fluid (NAF) from NAF yielders. […] Treatment began within 5 days post-randomization and ended on the day prior to surgical resection. Participants were instructed to apply the gel to the entire skin envelope of each breast each morning, after a shower. Duration of therapy was 6-10 weeks. Compliance was assessed through participant diaries, counts of returned pills and of returned gel canisters. Participants who took at least 80% of the prescribed dose were considered compliant.
Assessments similar to those performed at baseline were repeated on the day prior to, or on the morning of surgery. During surgery, breast adipose tissue from the surgical sample was snap frozen and stored at −80° C. for measurement of tamoxifen and metabolites. The samples were obtained from a location adjacent to the DCIS lesion to provide uniformity between participants undergoing breast conservation and mastectomy. The paraffin block of the core and excision samples were acquired by the recruiting institution and 10 sections from each specimen were submitted to the NU Pathology Core Facility. The sections were cut in batches (with pre- and post-treatment samples in the same batch), shipped cold, and processed for immunohistochemistry within four weeks.
(Z)-tamoxifen, (Z)-NDT, (E) and (Z)-4-OHT, and (Z)-endoxifen were measured by liquid chromatography-tandem mass spectrometry with a turbo ion spray interface operating in positive mode (API 3000; AB SCIEX, Foster City, Calif.). […] For analysis of NAF, samples were collected in a capillary tube and diluted with 200 μL of phosphate buffered saline; 100 μL of the diluted NAF sample was used for analysis. Breast adipose tissue samples, 25 mg, were minced and treated with 125 μL of […] and extracted as described above.
Retention times for (Z)-tamoxifen, (Z)-NDT, (Z)-4-OHT, (E)-4-OHT and (Z)-endoxifen were 7.3, 6.8, 5.1, 4.7 and 4.5 min, respectively. […] In three participants, matched samples were not available: breast adipose tissue was not collected in two, and the plasma sample was missing in one.
Since the fraction of E and Z isoforms of 4-OHT was of particular interest, we used an additional validated method to study plasma concentrations of these metabolites in a different laboratory (Eurofins Medinet, Chantilly, Va.): Plasma from blood samples collected in lithium-heparin tubes was frozen at −20° C., shipped in batches on dry ice to them Eurofins Medinet central laboratory; LC-MS/MS was used for the simultaneous determination of (E) 4-OHT and (Z) 4-OHT, with a lower limit of quantitation (LOQ) of 10 pg/mL and upper LOQ of 10,000 pg/mL. Eurofins Medinet developed and validated them method for BHR Pharma, in accordance with the FDA Guidance on Bioanalytical Method Validation.

[2] = system: von Willebrand factor; assay: Plasma von Willebrand factor immuno-turbidimetric assay, presurgical trial; conditions: mean ± SD
Description: (§2) Plasma samples collected with anticoagulant K3-EDTA were used for human IGF-1 and SHBG assays, and coagulation protein assays (factor VIII, factor IX, von Willebrand factor, and protein S)[23]. The human IGF-1 and SHBG assays were performed with Quantikine Enzyme-linked immunosorbent assay (ELISA) Kits (R&D Systems, Cat # DG100 for IGF-1, and Cat # DSHBGO for SHBG assay). The lower limit of detection was 56 pg/ml, and 5 pmol/L; % CV values were 4.3 and 5.6 for IGF-1, and SHBG assay, respectively. Factor VIII, and factor IX were determined with VisuLize™ antigen ELISA kits (Affinity Biologicals Inc.). von Willebrand factor was measured with immune-turbidimetric assay (Diagnostica Stago Inc. Cat #00518) by STAR analyzer, and total protein S was assayed with an ELISA kit (REAADSR Inc.)

[3] = system: factor VIII; assay: Plasma factor VIII antigen ELISA, presurgical trial; conditions: mean ± SD
Description: as §2

[4] = system: SHBG; assay: Plasma SHBG ELISA, presurgical trial; conditions: mean ± SD
Description: as §2

[5] = system: IGF-1; assay: Plasma IGF-1 ELISA, presurgical trial; conditions: mean ± SD
Description: as §2

[6] = system: total protein S; assay: Plasma total protein S ELISA, presurgical trial; conditions: mean ± SD
Description: as §2

[7] = BESS quality of life questionnaire and CTCAE adverse events, presurgical trial
Description: as §1
The BESS Questionnaire was repeated at day 15 and at the end of treatment (1 day before surgery or day of surgery), and the post-surgical visit (approximately 7-14 days after surgery).
For continuous variables in the immunochemistry, drug concentration, and blood coagulation data, means and standard deviations are reported; the significance of changes between baseline and post-treatment within groups were evaluated with the paired t-test, and differences between treatment groups assessed using the unpaired t-test. For categorized demographic data, we examined the association of these variables with treatment group via Fisher's exact test. For the analysis of quality of life, the 33 symptoms in the BESS Questionnaire were divided into eight clusters as described by Cella et. al.. The mean score within each cluster was used to evaluate significance of changes from baseline to posttreatment within groups as well as the differences between treatment groups using the Wilcoxon signed-rank test.

[8] = at surgery after 6-10 weeks, mean ± SD, LLOQ 3 ng/g

Compound: CC/C(=C(\c1ccccc1)c1ccc(OCCN(C)C)cc1)c1ccccc1 [Tamoxifen, (Z)-tamoxifen]
- (E) 4-OHT concentration, plasma ([1]; after 6-10 weeks, mean ± SD, LLOQ 1 ng/mL): BQL
- (Z) Tamoxifen concentration, plasma ([1]; after 6-10 weeks, mean ± SD, LLOQ 20 ng/mL): 90 ± 45 ng/mL
- (E) 4-OHT concentration, breast adipose tissue [1, 8]: BQL
- (Z) Tamoxifen concentration, breast adipose tissue [1, 8]: 2959 ± 1035 ng/g
- plasma concentration of tamoxifen, individual participants ([1]; participants A, B and one with undetectable NAF levels, listed as oral-T): 54 ng/mL and 94.3 ng/mL and 160 ng/mL
- NAF concentration of endoxifen ([1]; post-treatment nipple aspirate fluid): undetectable
- NAF concentration of tamoxifen, individual participants ([1]; post-treatment nipple aspirate fluid, participants A, B, listed as oral-T): 320 ng/mL and 182 ng/mL
- NAF concentration of 4-OHT ((Z) 4-OHT), individual participants ([1]; post-treatment nipple aspirate fluid, participants C, D): undetectable
- % vWF post-treatment ([2]; plasma after 6-10 weeks): 218.6 ± 134.6%
- % vWF baseline ([2]; plasma before treatment): 167.4 ± 89.2%
- % vWF Changes from baseline ([2]; plasma): 51.2 ± 71.0%
- % Factor VIII post-treatment ([3]; plasma after 6-10 weeks): 168.7 ± 51.6%
- % Factor VIII baseline ([3]; plasma before treatment): 157.1 ± 47.5%
- % Factor VIII Changes from baseline ([3]; plasma): 11.6 ± 17.3%
- SHBG post-treatment ([4]; plasma after 6-10 weeks): 143.9 ± 69.0 ng/mL
- SHBG baseline ([4]; plasma before treatment): 98.4 ± 45.0 ng/mL
- SHBG Changes from baseline ([4]; plasma): 45.5 ± 40.2 ng/mL
- IGF-1 post-treatment ([5]; plasma after 6-10 weeks): 50.3 ± 9.7 ng/mL
- IGF-1 baseline ([5]; plasma before treatment): 59.0 ± 11.4 ng/mL
- IGF-1 Changes from baseline ([5]; plasma): -8.7 ± 8.3 ng/mL
- % Total Protein S post-treatment ([6]; plasma after 6-10 weeks): 91.6 ± 12.2%
- % Total Protein S baseline ([6]; plasma before treatment): 94.3 ± 8.9%
- % Total Protein S Changes from baseline ([6]; plasma): −2.7 ± 9.3%
- BESS Vasomotor symptom cluster, baseline ([7]; hot flashes, night sweats, cold sweats, mean score ± SD): 0.33 ± 0.45
- BESS Bladder symptom cluster, Changes from baseline ([7]; mean score ± SD): 0.11 ± 0.49
- BESS Bladder symptom cluster, baseline ([7]; mean score ± SD): 0.14 ± 0.36
- BESS Bladder symptom cluster, post-treatment ([7]; mean score ± SD): 0.25 ± 0.33
- BESS Body Image symptom cluster, Changes from baseline ([7]; mean score ± SD): −0.04 ± 0.87
- BESS Body Image symptom cluster, baseline ([7]; mean score ± SD): 0.68 ± 0.77
- BESS Body Image symptom cluster, post-treatment ([7]; mean score ± SD): 0.64 ± 0.89
- BESS Body pain symptom cluster, Changes from baseline ([7]; mean score ± SD): 0.43 ± 0.92
- BESS Body pain symptom cluster, baseline ([7]; mean score ± SD): 0.76 ± 1.12
- BESS Body pain symptom cluster, post-treatment ([7]; mean score ± SD): 1.19 ± 1.11
- BESS Cognitive symptom cluster, Changes from baseline ([7]; mean score ± SD): 0.10 ± 0.86
- BESS Cognitive symptom cluster, baseline ([7]; mean score ± SD): 0.62 ± 0.61
- BESS Cognitive symptom cluster, post-treatment ([7]; mean score ± SD): 0.71 ± 1.18
- BESS Gastrointestinal symptom cluster, Changes from baseline ([7]; mean score ± SD): −0.10 ± 0.24
- BESS Gastrointestinal symptom cluster, baseline ([7]; mean score ± SD): 0.12 ± 0.31
- BESS Gastrointestinal symptom cluster, post-treatment ([7]; mean score ± SD): 0.02 ± 0.09
- BESS Sexual problems symptom cluster, Changes from baseline ([7]; mean score ± SD): −0.21 ± 0.54
- BESS Sexual problems symptom cluster, baseline ([7]; mean score ± SD): 0.32 ± 0.72
- BESS Sexual problems symptom cluster, post-treatment ([7]; mean score ± SD): 0.11 ± 0.40
- BESS Vaginal symptom cluster, Changes from baseline ([7]; mean score ± SD): 0.07 ± 0.19
- BESS Vaginal symptom cluster, baseline ([7]; mean score ± SD): 0.00 ± 0.00
- BESS Vaginal symptom cluster, post-treatment ([7]; mean score ± SD): 0.07 ± 0.19
- BESS Vasomotor symptom cluster, Changes from baseline ([7]; mean score ± SD): 0.55 ± 1.05
- BESS Vasomotor symptom cluster, post-treatment ([7]; mean score ± SD): 0.88 ± 1.26
- BESS Vaginal symptom cluster, baseline ([7]; mean score ± SD, listed as oral-T): 0.00
- serious adverse events (CTCAE) ([7]; whole study): no serious adverse events
